The term IC50 denotes the concentration needed to halve the response being measured.

In publication PMC2905628 (Molecular cancer therapeutics, 2010) one finds IC50 data, which are given here for 1 compound.

Each structure is given as a SMILES string.

This experiment concerns the target T1, protein kinase D2 (PKD2) (Homo sapiens, UniProt Q9BZL6).
T1 sequence (Q9BZL6 1-878): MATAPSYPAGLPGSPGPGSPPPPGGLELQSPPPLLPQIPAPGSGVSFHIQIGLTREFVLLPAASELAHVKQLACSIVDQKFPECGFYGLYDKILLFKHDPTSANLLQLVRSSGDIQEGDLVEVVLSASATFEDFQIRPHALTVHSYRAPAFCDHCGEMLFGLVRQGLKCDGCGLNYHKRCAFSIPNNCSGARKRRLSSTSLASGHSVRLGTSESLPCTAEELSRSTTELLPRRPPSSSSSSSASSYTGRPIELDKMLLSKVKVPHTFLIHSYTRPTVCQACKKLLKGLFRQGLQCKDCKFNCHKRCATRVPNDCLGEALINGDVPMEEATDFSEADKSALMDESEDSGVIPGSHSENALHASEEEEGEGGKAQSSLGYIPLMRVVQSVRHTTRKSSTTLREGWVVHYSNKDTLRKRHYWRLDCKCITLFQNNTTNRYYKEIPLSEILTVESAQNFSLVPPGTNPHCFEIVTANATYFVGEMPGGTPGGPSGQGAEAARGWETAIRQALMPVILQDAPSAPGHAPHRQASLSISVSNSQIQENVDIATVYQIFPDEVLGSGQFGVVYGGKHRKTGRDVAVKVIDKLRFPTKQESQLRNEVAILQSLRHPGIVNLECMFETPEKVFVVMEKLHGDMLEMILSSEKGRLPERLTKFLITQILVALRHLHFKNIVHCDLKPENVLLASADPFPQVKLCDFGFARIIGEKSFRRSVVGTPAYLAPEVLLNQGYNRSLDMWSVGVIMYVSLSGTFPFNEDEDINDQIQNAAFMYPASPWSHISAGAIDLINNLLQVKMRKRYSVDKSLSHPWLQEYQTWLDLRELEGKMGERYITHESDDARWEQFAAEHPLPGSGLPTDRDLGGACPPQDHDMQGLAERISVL
In words: IMAP fluorescence polarization kinase assay, peptide substrate phosphorylation. Format: biochemical.

Turning to `CC[C@@H](N)CNc1ccnc(-c2cc(-c3cnn(C)c3)ccc2O)n1` [CRT0066101], the IC50 amounted to 2.5 nM.
